{"source": "patent US12281363B2", "about": "“Methods for detecting antiviral-drug resistant virus” (Secretary of State for Health and Social Care, priority 2018, dated 2025)", "tested_on": "HSV-1", "assay": "Plaque reduction assay, HSV-1 clinical isolates on Vero cells", "type": "cell-based", "details": "Human alphaherpesvirus 1, Vero", "how_it_was_run": "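Susceptibility of HSV-1 isolates was read as percent plaque reduction versus no-drug control, counted on fixed, crystal-violet-stained sub-confluent Vero cells infected at 75 PFU/well beneath CMC. Intermediate resistance lies between cut-offs ACV <3/>40 μM, PCV <10/>40 μM, CDV <24/>30 μM, FOS <250/>400 μM.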", "note": "pIC50: −log10 of the molar value. Like-named read-outs stand apart in the source and are kept apart here.", "data": [{"smiles": "Nc1nc2c(ncn2CCC(CO)CO)c(=O)[nH]1", "note": "[Penciclovir, penciclovir]", "values": [{"measurement": "pIC50", "setting": "isolate HPG033, HSV-1 TK I358L (1072A>C), also TK T287M, read-out: Drug susceptibility (IC50 value)", "result": "< 3.80"}, {"measurement": "pIC50", "setting": "isolate HPG033, HSV-1 TK I358L (1072A>C), also TK T287M, read-out: Drug susceptibility Penciclovir (PCV)", "result": "< 4.40"}, {"measurement": "pIC50", "setting": "isolate HPG033, HSV-1 pol N1046T (3137A>C), also TK T287M, pol A1169T, read-out: Drug susceptibility (IC50 value)", "result": "< 3.80"}, {"measurement": "pIC50", "setting": "isolate HPG033, HSV-1 pol N1046T (3137A>C), also TK T287M, pol A1169T, read-out: Drug susceptibility Penciclovir (PCV)", "result": "< 4.40"}, {"measurement": "pIC50", "setting": "isolate HPG035, HSV-1 pol S239L (716C>T), also pol S724N, read-out: Drug susceptibility (IC50 value)", "result": 4.84}, {"measurement": "pIC50", "setting": "isolate HPG035, HSV-1 pol S239L (716C>T), also pol S724N, read-out: Drug susceptibility Penciclovir (PCV)", "result": "4.40 to 5.00"}, {"measurement": "pIC50", "setting": "isolate HPG037, HSV-1 TK L69M (205>A), also TK Y239H, read-out: Drug susceptibility Penciclovir (PCV)", "result": "< 4.40"}, {"measurement": "pIC50", "setting": "isolate HPG037, HSV-1 TK R256W (766C>T), read-out: Drug susceptibility (IC50 value)", "result": "< 3.80"}, {"measurement": "pIC50", "setting": "isolate HPG037, HSV-1 TK R256W (766C>T), read-out: Drug susceptibility Penciclovir (PCV)", "result": "< 4.40"}, {"measurement": "pIC50", "setting": "isolate HPG037, HSV-1 TK Y239H (715T>C), read-out: Drug susceptibility (IC50 value)", "result": "< 3.80"}, {"measurement": "pIC50", "setting": "isolate HPG037, HSV-1 TK Y239H (715T>C), read-out: Drug susceptibility Penciclovir (PCV)", "result": "< 4.40"}, {"measurement": "pIC50", "setting": "isolate HPG039, HSV-1 TK 85* or H58fs (169delC, 170delC, 171delC, or 172delC), read-out: Drug susceptibility (IC50 value)", "result": 3.80}, {"measurement": "pIC50", "setting": "isolate HPG039, HSV-1 TK 85* or H58fs (169delC, 170delC, 171delC, or 172delC), read-out: Drug susceptibility Penciclovir (PCV)", "result": "< 4.40"}, {"measurement": "pIC50", "setting": "isolate HPG040, HSV-1 pol S911N (2732G>A), also TK deletion (C) nt 896-900, pol A1169T, read-out: Drug susceptibility (IC50 value)", "result": "< 3.80"}, {"measurement": "pIC50", "setting": "isolate HPG040, HSV-1 pol S911N (2732G>A), also TK deletion (C) nt 896-900, pol A1169T, read-out: Drug susceptibility Penciclovir (PCV)", "result": "< 4.40"}, {"measurement": "pIC50", "setting": "isolate HPG041, HSV-1 pol S911N (2732G>A), also pol A1169T, read-out: Drug susceptibility (IC50 value)", "result": 5.52}, {"measurement": "pIC50", "setting": "isolate HPG041, HSV-1 pol S911N (2732G>A), also pol A1169T, read-out: Drug susceptibility Penciclovir (PCV)", "result": "> 5.00"}, {"measurement": "pIC50", "setting": "isolate HPG042, HSV-1 pol A972V (2915C>T), also TK deletion (C) nt 881-885, pol A1169T, read-out: Drug susceptibility (IC50 value)", "result": "< 3.80"}, {"measurement": "pIC50", "setting": "isolate HPG042, HSV-1 pol A972V (2915C>T), also TK deletion (C) nt 881-885, pol A1169T, read-out: Drug susceptibility Penciclovir (PCV)", "result": "< 4.40"}, {"measurement": "pIC50", "setting": "isolate HPG042, HSV-1 pol G22R (64G>A), also TK deletion (C) nt 881-885, pol A1169T, read-out: Drug susceptibility (IC50 value)", "result": "< 3.80"}, {"measurement": "pIC50", "setting": "isolate HPG042, HSV-1 pol G22R (64G>A), also TK deletion (C) nt 881-885, pol A1169T, read-out: Drug susceptibility Penciclovir (PCV)", "result": "< 4.40"}, {"measurement": "pIC50", "setting": "isolate HPG043, HSV-1 TK 183* (437_438insA), read-out: Drug susceptibility (IC50 value)", "result": "< 3.80"}, {"measurement": "pIC50", "setting": "isolate HPG043, HSV-1 TK 183* (437_438insA), read-out: Drug susceptibility Penciclovir (PCV)", "result": "< 4.40"}, {"measurement": "pIC50", "setting": "isolate HPG045, HSV-1 TK L49R (146T>G), read-out: Drug susceptibility (IC50 value)", "result": "< 3.80"}, {"measurement": "pIC50", "setting": "isolate HPG045, HSV-1 TK L49R (146T>G), read-out: Drug susceptibility Penciclovir (PCV)", "result": "< 4.40"}, {"measurement": "pIC50", "setting": "isolate HPG045, HSV-1 pol L419I (1255C>A), also TK L49R, pol A1169T, read-out: Drug susceptibility (IC50 value)", "result": "< 3.80"}, {"measurement": "pIC50", "setting": "isolate HPG045, HSV-1 pol L419I (1255C>A), also TK L49R, pol A1169T, read-out: Drug susceptibility Penciclovir (PCV)", "result": "< 4.40"}, {"measurement": "pIC50", "setting": "isolate HPG046, HSV-1 TK I166N (497T>A), read-out: Drug susceptibility (IC50 value)", "result": 4.01}, {"measurement": "pIC50", "setting": "isolate HPG046, HSV-1 TK I166N (497T>A), read-out: Drug susceptibility Penciclovir (PCV)", "result": "< 4.40"}, {"measurement": "pIC50", "setting": "isolate HPG047, HSV-1 pol E680 (2039A>C), also TK deletion (C) nt 548-553, pol A1169T, read-out: Drug susceptibility Penciclovir (PCV)", "result": "< 4.40"}, {"measurement": "pIC50", "setting": "isolate HPG050, HSV-1 TK Q34* (100C>T), read-out: Drug susceptibility (IC50 value)", "result": "< 3.80"}, {"measurement": "pIC50", "setting": "isolate HPG050, HSV-1 TK Q34* (100C>T), read-out: Drug susceptibility Penciclovir (PCV)", "result": "< 4.40"}, {"measurement": "pIC50", "setting": "isolate HPG051, HSV-1 pol D83A (248A>C), also TK R176stop, read-out: Drug susceptibility (IC50 value)", "result": "< 3.80"}, {"measurement": "pIC50", "setting": "isolate HPG051, HSV-1 pol D83A (248A>C), also TK R176stop, read-out: Drug susceptibility Penciclovir (PCV)", "result": "< 4.40"}, {"measurement": "pIC50", "setting": "isolate HPG052, HSV-1 TK Q34* (100C>T), read-out: Drug susceptibility (IC50 value)", "result": 4.60}, {"measurement": "pIC50", "setting": "isolate HPG052, HSV-1 TK Q34* (100C>T), read-out: Drug susceptibility Penciclovir (PCV)", "result": "4.40 to 5.00"}, {"measurement": "pIC50", "setting": "isolate HPG053, HSV-1 pol L802R + A834S (2405T>G, 2500G>T), also TK R176W, read-out: Drug susceptibility Penciclovir (PCV)", "result": "< 4.40"}, {"measurement": "pIC50", "setting": "isolate HPG053, HSV-1 pol S911N (2732G>A), also TK R176W, pol A1169T, read-out: Drug susceptibility (IC50 value)", "result": "< 3.80"}, {"measurement": "pIC50", "setting": "isolate HPG053, HSV-1 pol S911N (2732G>A), also TK R176W, pol A1169T, read-out: Drug susceptibility Penciclovir (PCV)", "result": "< 4.40"}, {"measurement": "pIC50", "setting": "isolate HPG054, HSV-1 pol E992K (2974G>A), also TK insert (G) nt 430-436, pol A1169T, read-out: Drug susceptibility (IC50 value)", "result": "< 3.80"}, {"measurement": "pIC50", "setting": "isolate HPG054, HSV-1 pol E992K (2974G>A), also TK insert (G) nt 430-436, pol A1169T, read-out: Drug susceptibility Penciclovir (PCV)", "result": "< 4.40"}, {"measurement": "pIC50", "setting": "isolate HPG055, HSV-1 TK V204G (611T>G), also pol A1169AT, read-out: Drug susceptibility (IC50 value)", "result": 5.03}, {"measurement": "pIC50", "setting": "isolate HPG055, HSV-1 TK V204G (611T>G), also pol A1169AT, read-out: Drug susceptibility Penciclovir (PCV)", "result": "> 5.00"}, {"measurement": "pIC50", "setting": "read-out: Drug susceptibility (IC50 value), isolate HPG005, HSV-1 TK A192T (574G>A)", "result": 5.28}, {"measurement": "pIC50", "setting": "read-out: Drug susceptibility (IC50 value), isolate HPG006, HSV-1 pol G121S (361G>A), also a TK resistance mutation (footnote a)", "result": "< 3.80"}, {"measurement": "pIC50", "setting": "read-out: Drug susceptibility (IC50 value), isolate HPG012, HSV-1 pol G985E (2954G>A), also TK A93V", "result": 5.01}, {"measurement": "pIC50", "setting": "read-out: Drug susceptibility (IC50 value), isolate HPG016, HSV-1 pol A1169T (3505G>A)", "result": 5.14}, {"measurement": "pIC50", "setting": "read-out: Drug susceptibility (IC50 value), isolate HPG037, HSV-1 TK L69M (205>A), also TK Y239H", "result": "< 3.80"}, {"measurement": "pIC50", "setting": "read-out: Drug susceptibility (IC50 value), isolate HPG042, HSV-1 TK frameshift (881delC to 885delC)", "result": "< 3.80"}, {"measurement": "pIC50", "setting": "read-out: Drug susceptibility (IC50 value), isolate HPG047, HSV-1 pol E680 (2039A>C), also TK deletion (C) nt 548-553, pol A1169T", "result": "< 3.80"}, {"measurement": "pIC50", "setting": "read-out: Drug susceptibility Penciclovir (PCV), isolate HPG005, HSV-1 TK A192T (574G>A)", "result": "> 5.00"}, {"measurement": "pIC50", "setting": "read-out: Drug susceptibility Penciclovir (PCV), isolate HPG006, HSV-1 pol G121S (361G>A), also a TK resistance mutation (footnote a)", "result": "< 4.40"}, {"measurement": "pIC50", "setting": "read-out: Drug susceptibility Penciclovir (PCV), isolate HPG012, HSV-1 pol G985E (2954G>A), also TK A93V", "result": "4.40 to 5.00"}, {"measurement": "pIC50", "setting": "read-out: Drug susceptibility Penciclovir (PCV), isolate HPG016, HSV-1 pol A1169T (3505G>A)", "result": "> 5.00"}, {"measurement": "pIC50", "setting": "read-out: Drug susceptibility Penciclovir (PCV), isolate HPG042, HSV-1 TK frameshift (881delC to 885delC)", "result": "< 4.40"}]}]}
